Counter-ions that a name gives are not always drawn.

Results on 16 compounds are retold here after patent publication US9682965B2, “Fumagillol heterocyclic compounds and methods of making and using same” (Zafgen, Inc., priority 2015, dated 2017).

Experiment [1] relates to Male Sprague Dawley rats on high fat diet. Kind of experiment: 11 day rat DIO model (body weight, food intake, hematology, blood chemistries). It counts as in vivo. To be noted: 264 h, DIO rat, once a day for 11 days, read-out: DIO Rat 11-day weight loss vs vehicle; for inhibition in vivo at 0.3 mg/kg: 0.3 mpk sc. From the text: The objective of this study design is to investigate the efficacy of disclosed compounds in an 11 day rat DIO model used to screen compounds for pharmacologic efficacy on endpoints related to obesity and metabolism. Effects on body weight, food intake, hematology and blood chemistries were the primary readouts of this study design. […] Rats were fed Research Diets D12451 (45% High Fat) and provided water ad libitum. Rats were received and housed in the facility for at least two or three weeks prior to start of test article administration. On Day −4 or −3, rats were randomized into study groups based on body weight and body weights were continued to be recorded daily for the duration of the study. Daily food intake was assessed starting on Study Day −2 by weighing the hopper including the food to avoid loss of food in transfer.
(§1) Compounds were formulated into a 100% DMSO stock (at 9 mg/mL) prior to the start, and further diluted into the target working concentration using the vehicle of 10% DMSO in water. Prior to test article administration, starting on Day −3 a dosing acclimation occured with all animals receiving a subcutaneous injection of vehicle (10% DMSO) only for 3 days. Starting on Day 1, test compounds or vehicle were administered based on individual body weight, subcutaneously, once a day for 11 days. All animals were sacrificed on Day 11, approximately 2 hours following the final dosing on Day 11. After sacrifice, whole blood was collected and analyzed for hematology and blood chemistry parameters.
(§2) Compounds were tested vs. vehicle at various doses (1.0, 0.5, 0.3, 0.1, 0.03 mpk sc (mg per kg animal weight delivered subcutaneously), and the results are shown in Table 2 below.

Experiment [2] deals with Diet Induced Obese (DIO) C57BL/6 mice. Put plainly: 10 day DIO mouse model (body weight, food intake, hematology, blood chemistry). It counts as in vivo. To be noted: 240 h; DIO mouse, 0.3 mpk sc, once a day for 10 days; read-out: DIO Mouse 10-day weight loss vs vehicle.
Source text: The objective of this study design was to investigate the efficacy of disclosed compounds in a 10 day DIO mouse model. Effects on body weight, food intake, hematology and blood chemistry were the primary readouts of this study design. […] Mice were fed Research Diets D12492 (60% Kcal fat, 20% Kcal carbohydrate and 20% protein) and provided water ad libitum. DIO mice were received and housed in the facility for approximately two weeks prior to the start of test article administration. On Day −4 or −3, mice were randomized into study groups based on body weight and body weights were continued to be recorded daily for the duration of the study. Daily food intake was assessed starting on Study Day −2 by weighing of the food with hopper together to avoid loss of food in transfer.
as §1, with “for 10” for “for 11”, “All mice” for “All animals”, “11, 24” for “11, approximately 2”, “Day 10.” for “Day 11.”
as §2

Take `CO[C@@H]1[C@H](OC(=O)N2CCC(CCN3CC(F)(F)C3)C2)CC[C@]2(CO2)[C@H]1[C@@]1(C)O[C@@H]1CC=C(C)C` (stereo in doubt) [Example 57, (R)-(3R,4S,5S,6R)-5-methoxy-4-((2R,3R)-2-methyl-3-(3-methylbut-2-en-1-yl)oxiran-2-yl)-1-oxaspiro[2.5]octan-6-yl 3-(2-(3,3-difluoroazetidin-1-yl)ethyl)pyrrolidine-1-carboxylate]: the inhibition in vivo at 0.3 mg/kg in experiment [1] worked out at 5.3%; in experiment [2] it was 17.4%. As to `CO[C@@H]1[C@H](OC(=O)N2CC(CCn3cccn3)C2)CC[C@]2(CO2)[C@H]1[C@@]1(C)O[C@@H]1CC=C(C)C` [Example 17, (3R,4S,5S,6R)-5-methoxy-4-((2R,3R)-2-methyl-3-(3-methylbut-2-enyl)oxiran-2-yl)-1-oxaspiro[2.5]octan-6-yl 3-(2-(1H-pyrazol-1-yl)ethyl)azetidine-1-carboxylate], the inhibition in vivo at 0.3 mg/kg in experiment [1] was 5.1%; in experiment [2], 12.6%. On the same counts, the results for `CO[C@@H]1[C@H](OC(=O)N2CC(CCN3CCN(CC(F)F)CC3)C2)CC[C@]2(CO2)[C@H]1[C@@]1(C)O[C@@H]1CC=C(C)C` [Example 34, (3R,4S,5S,6R)-5-methoxy-4-((2R,3R)-2-methyl-3-(3-methylbut-2-en-1-yl)oxiran-2-yl)-1-oxaspiro[2.5]octan-6-yl 3-(2-(4-(2,2-difluoroethyl)piperazin-1-yl)ethyl)azetidine-1-carboxylate] are 5.1% and 9.3%.

As to `CO[C@@H]1[C@H](OC(=O)N2CC[C@@H](CN3CCOCC3)C2)CC[C@]2(CO2)[C@H]1[C@@]1(C)O[C@@H]1CC=C(C)C` [Example 37, (S)-(3R,4S,5S,6R)-5-methoxy-4-((2R,3R)-2-methyl-3-(3-methylbut-2-en-1-yl)oxiran-2-yl)-1-oxaspiro[2.5]octan-6-yl 3-(morpholinomethyl)pyrrolidine-1-carboxylate formate], the inhibition in vivo at 0.3 mg/kg came to 5.3% in experiment [1] and 11.1% in experiment [2].

On to `CCN(CC)C[C@@H]1CCN1C(=O)O[C@@H]1CC[C@]2(CO2)[C@@H]([C@@]2(C)O[C@@H]2CC=C(C)C)[C@@H]1OC` [Example 40, (S)-((3R,4S,5S,6R)-5-methoxy-4-((2R,3R)-2-methyl-3-(3-methylbut-2-enyl)oxiran-2-yl)-1-oxaspiro[2.5]octan-6-yl) 2-((diethylamino)methyl)azetidine-1-carboxylate formate], for which the inhibition in vivo at 0.3 mg/kg in experiment [1] came out at 0.08%; in experiment [2], 6%. Also, the inhibition in vivo at 1 mg/kg in experiment [1] (1.0 mpk sc) is 4.73%. On to `CO[C@@H]1[C@H](OC(=O)N2CC(OC(=O)N(C)C)C2)CC[C@]2(CO2)[C@H]1[C@@]1(C)O[C@@H]1CC=C(C)C` [Example 77, (3R,4S,5S,6R)-5-methoxy-4-((2R,3R)-2-methyl-3-(3-methylbut-2-enyl)oxiran-2-yl)-1-oxaspiro[2.5]octan-6-yl 3-(dimethylcarbamoyloxy)azetidine-1-carboxylate], for which, in experiment [2], the inhibition in vivo at 0.3 mg/kg turned out to be 16.3%. `CO[C@@H]1[C@H](OC(=O)N2CC(OC(=O)N3CCS(=O)(=O)CC3)C2)CC[C@]2(CO2)[C@H]1[C@@]1(C)O[C@@H]1CC=C(C)C` [Example 79, 1-(((3R,4S,5S,6R)-5-methoxy-4-((2R,3R)-2-methyl-3-(3-methylbut-2-enyl)oxiran-2-yl)-1-oxaspiro[2.5]octan-6-yloxy)carbonyl)azetidin-3-yl thiomorpholine 2,2-dioxide-4-carboxylate formate]: in experiment [2], the inhibition in vivo at 0.3 mg/kg stood at 0.1%.

Regarding `CO[C@@H]1[C@H](OC(=O)N2CC(OC(=O)NCC(C)(C)O)C2)CC[C@]2(CO2)[C@H]1[C@@]1(C)O[C@@H]1CC=C(C)C` [Example 82, (3R,4S,5S,6R)-5-methoxy-4-((2R,3R)-2-methyl-3-(3-methylbut-2-enyl)oxiran-2-yl)-1-oxaspiro[2.5]octan-6-yl 3-(2-hydroxy-2-methylpropylcarbamoyloxy)azetidine-1-carboxylate], the inhibition in vivo at 0.3 mg/kg in experiment [2] was -0.7%. On the same count and under the same terms, under `COC(=O)NC1CN(C(=O)O[C@@H]2CC[C@]3(CO3)[C@@H]([C@@]3(C)O[C@@H]3CC=C(C)C)[C@@H]2OC)C1` [Example 87, (3R,4S,5S,6R)-5-methoxy-4-((2R,3R)-2-methyl-3-(3-methylbut-2-enyl)oxiran-2-yl)-1-oxaspiro[2.5]octan-6-yl 3-(methoxycarbonylamino)azetidine-1-carboxylate] stands 10.9%; under `CO[C@@H]1[C@H](OC(=O)N2CC(CCC3CCN(C)CC3)C2)CC[C@]2(CO2)[C@H]1[C@@]1(C)O[C@@H]1CC=C(C)C` [Example 90, (3R,4S,5S,6R)-5-methoxy-4-((2R,3R)-2-methyl-3-(3-methylbut-2-enyl)oxiran-2-yl)-1-oxaspiro[2.5]octan-6-yl 3-(2-(1-methylpiperidin-4-yl)ethyl)azetidine-1-carboxylate formate], 13.5%; under `CO[C@@H]1[C@H](OC(=O)N2CC(CCC3CN(CC(F)F)C3)C2)CC[C@]2(CO2)[C@H]1[C@@]1(C)O[C@@H]1CC=C(C)C` [Example 92, (3R,4S,5S,6R)-5-methoxy-4-((2R,3R)-2-methyl-3-(3-methylbut-2-enyl)oxiran-2-yl)-1-oxaspiro[2.5]octan-6-yl 3-(2-(1-(2,2-difluoroethyl)azetidin-3-yl)ethyl)azetidine-1-carboxylate], 20.7%. The same measure, in the same setting: under `CO[C@@H]1[C@H](OC(=O)N2CC(CC3CCN(CC(F)F)CC3)C2)CC[C@]2(CO2)[C@H]1[C@@]1(C)O[C@@H]1CC=C(C)C` [Example 94, (3R,4S,5S,6R)-5-methoxy-4-((2R,3R)-2-methyl-3-(3-methylbut-2-enyl)oxiran-2-yl)-1-oxaspiro[2.5]octan-6-yl 3-((1-(2,2-difluoroethyl)piperidin-4-yl)methyl)azetidine-1-carboxylate] stands 22.5%.

For the compound `CO[C@@H]1[C@H](OC(=O)N2CC(=CCN3CCOCC3)C2)CC[C@]2(CO2)[C@H]1[C@@]1(C)O[C@@H]1CC=C(C)C` [Example 96, (3R,4S,5S,6R)-5-methoxy-4-((2R,3R)-2-methyl-3-(3-methylbut-2-enyl)oxiran-2-yl)-1-oxaspiro[2.5]octan-6-yl 3-(2-morpholinoethylidene)azetidine-1-carboxylate], the inhibition in vivo at 0.3 mg/kg in experiment [2] was 18.6%. Consider `CO[C@@H]1[C@H](OC(=O)N2CC(=CCN3CCN(CC(F)F)CC3)C2)CC[C@]2(CO2)[C@H]1[C@@]1(C)O[C@@H]1CC=C(C)C` [Example 97, (3R,4S,5S,6R)-5-methoxy-4-((2R,3R)-2-methyl-3-(3-methylbut-2-enyl)oxiran-2-yl)-1-oxaspiro[2.5]octan-6-yl 3-(2-(4-(2,2-difluoroethyl)piperazin-1-yl)ethylidene)azetidine-1-carboxylate], for which the inhibition in vivo at 0.3 mg/kg in experiment [2] was found to be 21.3%.

In the case of `CO[C@@H]1[C@H](OC(=O)N2CC(Oc3ccccn3)C2)CC[C@]2(CO2)[C@H]1[C@@]1(C)O[C@@H]1CC=C(C)C` [Example 99, (3R,4S,5S,6R)-5-methoxy-4-((2R,3R)-2-methyl-3-(3-methylbut-2-enyl)oxiran-2-yl)-1-oxaspiro[2.5]octan-6-yl 3-(pyridin-2-yloxy)azetidine-1-carboxylate], the inhibition in vivo at 0.3 mg/kg in experiment [2] turned out to be 22.9%. Same read-out and setting: under `CO[C@@H]1[C@H](OC(=O)N2CC(CCC3CCN(CC(F)F)CC3)C2)CC[C@]2(CO2)[C@H]1[C@@]1(C)O[C@@H]1CCC(C)C` [Example 128, (3R,4S,5S,6R)-4-((2R,3R)-3-isopentyl-2-methyloxiran-2-yl)-5-methoxy-1-oxaspiro[2.5]octan-6-yl 3-(2-(1-(2,2-difluoroethyl)piperidin-4-yl)ethyl)azetidine-1-carboxylate] stands 15.2%.
